Reference: PMC12115197, “Neuroprotective Potential of Tetraselmis chuii Compounds: Insights into Blood–Brain Barrier Permeability and Intestinal Transport” (Pharmaceuticals, 2025)
Values joined by “and” are separate entries in the source; they are usually repeats but may differ in a detail not shown here. Equal values may be shown once. “Also recorded” adds a separate entry of the source. Marks after values point to notes of the source that are not given here.

Assays:
[1] = test system: HBMEC cells; assay: Blood-brain barrier transport study (Transwell, UHPLC-q-TOF-MS); assay type: in vitro ADME, human; conditions: for Permeability / transport to the lower compartment in HBMEC cells, over the incubation times tested: OP-1 extract 40 µg mL−1, 2-24 h, time not specified (overall or maximum); for Te% ± SEM HBMEC Cells 4 h: OP-1 extract 40 µg mL−1, 4 h; for Te% ± SEM HBMEC Cells 4 h / Te% ± SEM HBMEC Cells 24 h / Te% ± SEM HBMEC Cells 2 h: Te = CLower/CUpper × 100; for Te% ± SEM HBMEC Cells 24 h: OP-1 extract 40 µg mL−1, 24 h; for Te% ± SEM HBMEC Cells 2 h: OP-1 extract 40 µg mL−1, 2 h
Experimental: The HBMEC cell line was used as a simplified in vitro model of the BBB endothelium. For this, cells were seeded at a density of 1.6 × 10^5 cells/cm^2 into 12-well Transwell® plates (0.4 μm pore, Corning Costar Corp., Corning, NY, USA) coated with rat tail collagen-I (100 μg mL^−1). Medium was changed every second day until a monolayer was formed (10 days), and the transport studies were initiated.
Medium containing 0.4% ethanol was used as the control group, and the lower chamber was filled with 1.5 mL of medium. The cells were incubated under these conditions for 2, 4, and 24 h. After incubation time, cell culture medium from both the upper and lower compartments was collected, dried using a freeze dryer (Martin Christ, Osterode am Harz, Germany), and stored at −80 °C until the chemical characterization was performed to assess the transport efficiency of the bioactive compounds.
(§1) The transport efficiency of bioactive compounds across the cell layer (Te) was calculated using the Equation (1) proposed by Pogačnik et al. (2016):Te = CLower/CUpper × 100%(1)
(§2) This calculation was performed to understand whether the compound crosses the cell layer and how efficiently it is transported. Here, CLower represents the relative concentration (peak area) of the compound in the lower compartment, and CUpper represents the relative concentration (peak area) of the compound in the upper compartment.
(§3) Obtained samples from the transport assays performed in HBMEC and Caco-2 cells were extracted to recover and concentrate the bioactive compounds in the upper and lower compartments and to prevent possible interferences of the cell culture medium in the analyses. Briefly, dried samples were resuspended in 0.5 mL of H2O and mixed with vortex for 10 s. Then, 0.5 mL of AcOEt was added, mixed with vortex for 10 s, and centrifuged at 14,000 rpm for 5 min. After centrifugation, the supernatant (AcOEt) was carefully transferred to a 1.5 mL Eppendorf tube and dried in a SpeedVac (SPD1030, Thermo Fisher Scientific) device at 40 °C and 13 mbar pressure. Finally, the dried extracts were resuspended in 25 μL of pure ethanol for their subsequent analysis.
(§4) The analysis of the obtained samples from HBMEC cells, Caco-2 cells, and PAMPA-BBB experiments was carried out using the same conditions and instrumentation as in our previous study. Briefly, 10 μL of each sample was injected into an Agilent 1290 UHPLC system equipped with a DAD detector and coupled to an Agilent 6540 q-TOF/MS equipped with an orthogonal atmospheric pressure chemical ionization (APCI) source, all from Agilent Technologies (Santa Clara, CA, USA). Carotenoids were separated using a Thermo Fisher Scientific Accucore C30 column (2.6 μm, 4.6 × 50 mm), applying a flow rate of 0.8 mL min^−1 at 30 °C. Methanol/MTBE/water (90:7:3%) and methanol/MTBE (10:90%) were used as mobile phases, and the chromatographic gradient started with 0%B, changing it to 100%B within 12 min. This was kept constant for 1.5 min before returning to the initial conditions.
(§5) The results were processed using the Agilent Mass Hunter Qualitative software (version B.10.0). A peak intensity threshold of 5000 (nearly 4 times the noise signal) in the upper compartments was applied to obtain reliable and accurate results, and a relative quantification was performed. Peaks below this threshold value were excluded from the analysis.

[2] = test system: Caco-2 cells; assay: Intestinal transepithelial transport study (Transwell, UHPLC-q-TOF-MS); assay type: in vitro ADME, human; conditions: for Permeability / transport to the lower compartment in Caco-2 cells, over the incubation times tested: OP-1 extract 40 µg mL−1, 2-24 h, time not specified (overall or maximum); for Te% ± SEM Caco-2 Cells 2 h: OP-1 extract 40 µg mL−1, 2 h; for Te% ± SEM Caco-2 Cells 2 h / Te% ± SEM Caco-2 Cells 4 h / Te% ± SEM Caco-2 Cells 24 h: Te = CLower/CUpper × 100; for Te% ± SEM Caco-2 Cells 4 h: OP-1 extract 40 µg mL−1, 4 h; for Te% ± SEM Caco-2 Cells 24 h: OP-1 extract 40 µg mL−1, 24 h
Experimental: as §1, §2
Caco-2 cells were grown according to the protocol described by Rojo-Poveda et al. (2020) to evaluate the intestinal permeability. Briefly, Caco-2 cells were seeded into inserts (0.4 μm pore, Corning Costar Corp., Corning, NY, USA) in 12-well plates. Then, 0.5 mL of complete DMEM culture medium containing approximately 300,000 cells was applied to the apical surface (AP) of each insert, and 1.5 mL of the same culture medium was added to the basolateral side (BL). Cells were allowed to grow for 21 days to differentiate and form a monolayer, changing the culture medium every 2–3 days.
The Caco-2 transport studies were performed using the same procedures as for HBMEC experiments (described in Section 4.5.2 and Section 4.5.3), but using DMEM as cell culture medium and recording TEER measurements.
as §3, §4, §5

[3] = Neuroprotection against L-glutamate-induced toxicity in SH-SY5Y cells (MTT); conditions: human
Experimental: Then, the viability was determined by the MTT assay as below. At the end of the 24 h incubation period, the medium was removed, and 0.5 mg mL^−1 MTT solution was added to each well. The cells were incubated at 37 °C for 3 h. At the end of the incubation, MTT was carefully removed, and formazan crystals in the wells were dissolved by adding 100 µL of DMSO. The absorbance of the solution was measured by a plate reader at 570 nm wavelength. Cell viability was calculated by comparing the absorbance values of treated cells with the control group (ethanol-treated cells). […] All the experiments were performed in triplicate.
In the control group, DMEM/F12 cell medium supplemented with 1% FBS, 100 U mL^−1 penicillin, 100 μg mL^−1 streptomycin, 250 ng mL^−1 antimycotic, and 0.4% ethanol was used. […] Cell viability was assessed by MTT assay at the end of the experiments. All the experiments were repeated three times.

[4] = test system: differentiated SH-SY5Y cells; assay: Neuroprotection against H2O2-induced toxicity in SH-SY5Y cells (MTT); assay type: cell-based, human; conditions: H2O2 65 µM, 24 h
Experimental: All the experiments were performed in triplicate.
All the experiments were repeated three times.

Molecule | Permeability / transport to the lower compartment in HBMEC cells, over the incubation times tested [1] | Permeability / transport to the lower compartment in Caco-2 cells, over the incubation times tested [2] | Te% ± SEM HBMEC Cells 24 h [1] | further results
CC1=C(C#C/C(C)=C/C=C/C(C)=C/C=C/C=C(C)/C=C/C=C(C)/C=C/[C@@]23O[C@]2(C)C[C@@H](O)CC3(C)C)C(C)(C)C[C@H](O)C1 [diadinoxanthin] | could not be detected in the lower compartment | could not be detected in the lower compartment |  | 
zeaxanthin/lutein | could not be detected in the lower compartment | could not be detected in the lower compartment |  | 
N[C@@H](CCC(=O)O)C(=O)O [L-glutamate] |  |  |  | viability at 24 h, 23 mM [3]: 47%
CC1=C(C#C/C(C)=C/C=C/C(C)=C/C=C/C=C(C)/C=C/C=C(C)/C=C/C2=C(C)C[C@@H](O)CC2(C)C)C(C)(C)C[C@H](O)C1 [Diatoxanthin] | 8.1% | 4.4% | 8.1 ± 3.4 ^a % | Te% ± SEM HBMEC Cells 4 h [1]: 1.1 ± 0.1 ^b %; Te% ± SEM HBMEC Cells 4 h ([1]; listed as diatoxanthin): 1.1%; Te% ± SEM HBMEC Cells 24 h ([1]; listed as diatoxanthin): 8.1%; Te% ± SEM Caco-2 Cells 2 h [2]: 1.4 ± 0.1 ^c %; Te% ± SEM Caco-2 Cells 2 h ([2]; listed as diatoxanthin): 1.4%; Te% ± SEM Caco-2 Cells 4 h [2]: 2.3 ± 0.3 ^b %; Te% ± SEM Caco-2 Cells 24 h [2]: 4.4 ± 0.9 ^a %; Te% ± SEM Caco-2 Cells 24 h ([2]; listed as diatoxanthin): 4.4%
CC(=C/C=C/C(C)=C/C=C/C=C(C)/C=C/C=C(\C)C=C=C1C(C)(C)C[C@H](O)C[C@@]1(C)O)/C=C/[C@@]12O[C@]1(C)C[C@@H](O)CC2(C)C [Neoxanthin] | 13.2% | ≈ 0.6% and 0.6% | 13.2 ± 4.3 ^a % | Te% ± SEM HBMEC Cells 4 h [1]: 1.4 ± 0.2 ^b %; Te% ± SEM HBMEC Cells 4 h ([1]; listed as neoxanthin): 1.4%; Te% ± SEM HBMEC Cells 24 h ([1]; listed as neoxanthin): 13.2%; Te% ± SEM Caco-2 Cells 2 h [2]: 0.5 ± 0.3 ^b %; Te% ± SEM Caco-2 Cells 4 h [2]: 0.4 ± 0.1 ^b %; Te% ± SEM Caco-2 Cells 24 h [2]: 0.6 ± 0.4 ^a %
CC1=C(/C=C/C(C)=C/C=C/C(C)=C/C=C/C=C(C)/C=C/C=C(C)/C=C/[C@@]23O[C@]2(C)C[C@@H](O)CC3(C)C)C(C)(C)C[C@H](O)C1 [antheraxanthin] | could not be detected in the lower compartment | could not be detected in the lower compartment |  | 
echinenone II | could not be detected in the lower compartment | could not be detected in the lower compartment |  | 
CC1=C(/C=C/C(C)=C/C=C/C(C)=C/C=C/C=C(C)/C=C/C=C(C)/C=C/C2=C(C)CCCC2(C)C)C(C)(C)CCC1 [β-carotene] | could not be detected in the lower compartment | could not be detected in the lower compartment |  | 
CC(/C=C/C=C(C)/C=C/[C@@]12O[C@]1(C)C[C@@H](O)CC2(C)C)=C\C=C\C=C(C)\C=C\C=C(C)\C=C\[C@@]12O[C@]1(C)C[C@@H](O)CC2(C)C [Violaxanthin] |  | could not be detected; also recorded: could not pass through the intestinal epithelium | 13.9 ± 6.0% | 
C\C(C=C=C1C(C)(C)C[C@H](O)C[C@@]1(C)O)=C/C=C/C(C)=C/C=C/C=C(C)/C=C/C=C(\C)C(=O)C[C@@]12O[C@]1(C)C[C@@H](O)CC2(C)C [Fucoxanthinol] |  |  | 18.94% and 18.9 ± 2.3 ^a % | Te% ± SEM HBMEC Cells 2 h [1]: 4.41% and 4.4 ± 1.1 ^c %; Te% ± SEM HBMEC Cells 2 h ([1]; listed as fucoxanthinol): 4.4%; Te% ± SEM HBMEC Cells 4 h [1]: 5.13% and 5.1 ± 0.1 ^b %; Te% ± SEM Caco-2 Cells 2 h [2]: 7.01% and 7.0 ± 0.2 ^c %; Te% ± SEM Caco-2 Cells 2 h ([2]; listed as fucoxanthinol): 7.0%; Te% ± SEM Caco-2 Cells 4 h [2]: 8.63% and 8.6 ± 2.2 ^b %; Te% ± SEM Caco-2 Cells 24 h [2]: 18.36% and 18.4 ± 7.2 ^a %
hydrogen peroxide [H2O2] |  |  |  | Cell viability compared to control group, neurotoxic agent alone [4]: 48%
C=C1C[C@@H](O)CC(C)(C)[C@]1(O)CC(=O)/C(C)=C/C=C/C(C)=C/C=C/C=C(C)/C=C/C=C(C)/C=C/[C@H]1C(C)=C[C@H](O)CC1(C)C [Prasinoxanthin] |  | could not be detected; also recorded: could not pass through the intestinal epithelium | 8.9 ± 2.3% | 
CC1=CCCC(C)(C)C1/C=C/C(C)=C/C=C/C(C)=C/C=C/C=C(C)/C=C/C=C(C)/C=C/C1=C(C)CCCC1(C)C (stereo not drawn) [α-carotene] | could not be detected in the lower compartment | could not be detected in the lower compartment |  | 
CC1=C(C#C/C(C)=C/C=C/C(C)=C/C=C/C=C(C)/C=C/C=C(C)/C=C/C2=C(C)CCCC2(C)C)C(C)(C)C[C@H](O)C1 [Crocoxanthin] | ≈ 3% and 3% | ≈ 12% and 12.1% | 2.7 ± 0.6 ^a % | Te% ± SEM HBMEC Cells 2 h [1]: 3.4 ± 3.2 ^a %; Te% ± SEM HBMEC Cells 4 h [1]: 0.9 ± 0.3 ^b %; Te% ± SEM Caco-2 Cells 2 h [2]: 12.0 ± 9.5 ^a %; Te% ± SEM Caco-2 Cells 4 h [2]: 11.8 ± 5.6 ^a %; Te% ± SEM Caco-2 Cells 24 h [2]: 12.1 ± 1.5 ^a %
echinenone I | could not be detected in the lower compartment | could not be detected in the lower compartment |  | 
